The test system of data set [1] is Sphaerotheca fuliginea. Kind of data set: In vivo preventive test on Sphaerotheca fuliginea (cucumber). Conditions: 500 ppm of active ingredient, evaluated 7 days after inoculation. Here is the method:
Solvent: 49 parts by weight of N,N-dimethylformamide Emulsifier: 1 part by weight of Alkylarylpolyglycolether To produce a suitable preparation of active compound, 1 part by weight of active compound is mixed with the stated amounts of solvent and emulsifier, and the concentrate is diluted with water to the desired concentration. To test for preventive activity, young plants are sprayed with the preparation of active compound at the stated rate of application. One day after this treatment, the plants are inoculated with an aqueous spore suspension of Sphaerotheca fuliginea. Then the plants are placed in a greenhouse at approximately 23° C. and a relative atmospheric humidity of approximately 70%. The test is evaluated 7 days after the inoculation. 0% means an efficacy which corresponds to that of the untreated control, while an efficacy of 100% means that no disease is observed.

Data set [2] relates to Alternaria solani. The data set is described as follows: In vivo preventive test on Alternaria solani (tomato). The note with it: 500 ppm of active ingredient, evaluated 7 days after inoculation. On the procedure: Solvent: 49 parts by weight of N,N-dimethylformamide Emulsifier: 1 part by weight of Alkylarylpolyglycolether To produce a suitable preparation of active compound, 1 part by weight of active compound is mixed with the stated amounts of solvent and emulsifier, and the concentrate is diluted with water to the desired concentration. To test for preventive activity, young plants are sprayed with the preparation of active compound at the stated rate of application. One day after this treatment, the plants are inoculated with an aqueous spore suspension of Alternaria solani. The plants remain for one day in an incubation cabinet at approximately 22° C. and a relative atmospheric humidity of 100%. Then the plants are placed in an incubation cabinet at approximately 20° C. and a relative atmospheric humidity of 96%. The test is evaluated 7 days after the inoculation. 0% means an efficacy which corresponds to that of the untreated control while an efficacy of 100% means that no disease is observed.

Data set [3] in a line: log P by HPLC on reversed-phase column (C 18), EEC Directive 79/831 Annex V.A8. The class given is physicochemical. The note with it: HPLC on reversed-phase column (C 18); 40° C.; 0.1% aqueous formic acid and acetonitrile; linear gradient 10% to 90% acetonitrile. Summed up: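 Reversed-phase C18 HPLC at 40° C with a linear 10% to 90% acetonitrile gradient against 0.1% aqueous formic acid. Log P is read from retention time by linear interpolation between successive unbranched alkan-2-ones (C3–C16) of known log P. UV spectra from 200 to 400 nm, taken at chromatographic peak maxima, give lambda-max.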

Data set [4] has as its system Pyrenophora teres. Kind of data set: In vivo preventive test on Pyrenophora teres (barley). Conditions: 500 ppm of active ingredient, evaluated 7-9 days after inoculation. Summed up:
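Young barley plants sprayed with compound in DMF/alkylaryl polyglycol ether emulsion; inoculated with P. teres spores one day later. 48 h at 22 °C, 100% humidity, then greenhouse ~20 °C, ~80% humidity; efficacy scored 7-9 days post-inoculation, 0% = untreated, 100% = no disease.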

The test system of data set [5] is Septoria tritici. Kind of data set: In vivo preventive test on Septoria tritici (wheat). Conditions: 500 ppm of active ingredient, evaluated 21 days after inoculation. On the procedure: Solvent: 49 parts by weight of N,N-dimethylacetamide Emulsifier: 1 part by weight of alkylaryl polyglycol ether To produce a suitable preparation of active compound, 1 part by weight of active compound or active compound combination is mixed with the stated amounts of solvent and emulsifier, and the concentrate is diluted with water to the desired concentration. To test for preventive activity, young plants are sprayed with the preparation of active compound or active compound combination at the stated rate of application. After the spray coating has been dried, the plants are sprayed with a spore suspension of Septoria tritici. The plants remain for 48 hours in an incubation cabinet at approximately 20° C. and a relative atmospheric humidity of approximately 100% and afterwards for 60 hours at approximately 15° C. in a translucent incubation cabinet at a relative atmospheric humidity of approximately 100%. The plants are placed in the greenhouse at a temperature of approximately 15° C. and a relative atmospheric humidity of approximately 80%. The test is evaluated 21 days after the inoculation. 0% means an efficacy which corresponds to that of the untreated control, while an efficacy of 100% means that no disease is observed.

Where “and” joins values, the source holds several entries; their conditions need not be identical. Equal entries are not always repeated.

What is called logP is a log measure of how a compound divides between an organic and an aqueous phase. Lower therefore signals lower lipophilicity.

For the molecule `Cn1nc(C(F)F)c(C(=O)N2CCCCC2c2ccccc2Cl)c1F` (stereo not drawn) [Example 41], the Efficacy in data set [1], in data set [2] and in data set [4] was 100% throughout. In data set [3], this molecule yielded a logP of 3.31.
Take `Cn1nc(C(F)F)c(C(=S)N2CCCCC2c2ccccc2Cl)c1F` (stereo not drawn) [Example 42]: the Efficacy in data set [1], in data set [2] and in data set [4] was 100% throughout. For the same molecule, in data set [3], the logP was 4.00.
With `CCc1nn(C)c(F)c1C(=O)N1CCCCC1c1cccc(Cl)c1` (stereo not drawn) [Example 43], the Efficacy in data set [2] is 95%; in data set [5], 80%; in data set [4], 100%. In data set [3], this molecule returned a logP of 3.31.
Turning to `Cn1nc(C(F)F)c(C(=O)N2CCCCC2c2cccc(Cl)c2)c1F` (stereo not drawn) [Example 48], the Efficacy in data set [1], in data set [2] and in data set [4] was 100% each time. This molecule also registered a logP in data set [3] of 3.39.
Turning to `Cn1nc(C(F)F)c(C(=S)N2CCCCC2c2cccc(Cl)c2)c1F` (stereo not drawn) [Example 49], the Efficacy in data set [1] came to 98%; in data set [2], 100%; in data set [4], 100%. In data set [3], this molecule gave a logP of 4.06.
Consider `Cc1nn(C)c(F)c1C(=O)N1CCCCC1c1ccc(Cl)cc1` (stereo not drawn) [Example 51], for which the Efficacy is given as 95% in data set [2], 100% in data set [5] and 100% in data set [4]. The logP in data set [3] is 2.98.
Consider `Cn1nc(C(F)F)c(C(=O)N2CCCCC2c2ccc(Cl)cc2)c1F` (stereo not drawn) [Example 56], for which the Efficacy worked out at 79% in data set [1], 100% in data set [2] and 100% in data set [4]. The molecule also registered a logP in data set [3] of 3.46.
With `Cn1nc(C(F)F)c(C(=S)N2CCCCC2c2ccc(Cl)cc2)c1F` (stereo not drawn) [Example 57], the Efficacy in data set [1] is on record as 70%; in data set [2] it was 100%; in data set [4], 100%. In addition, the log partition coefficient (logP) in data set [3] worked out at 4.16.
Consider `COc1cc(OC)cc(C2CCCCN2C(=O)c2c(C)nn(C)c2F)c1` (stereo not drawn) [Example 68], for which the Efficacy stood at 83% in data set [1], 80% in data set [2] and 95% in data set [4]. Further, the logP in data set [3] came to 2.56.
With `Cc1nn(C)c(F)c1C(=O)N1CCCCC1c1ccc(Cl)cc1Cl` (stereo not drawn) [Example 76], the Efficacy is given as 90% in data set [2], 100% in data set [5] and 100% in data set [4]. The logP in data set [3] is 3.39.
For the molecule `Cn1nc(C(F)F)c(C(=O)N2CCCCC2c2ccc(Cl)cc2Cl)c1F` (stereo not drawn) [Example 81], the values for the Efficacy in data set [1], in data set [2] and in data set [4] were 94%, 100% and 100%, respectively. Also, in data set [3], the logP came to 3.87.
For the molecule `CCc1nn(C)c(F)c1C(=O)N1CCCCC1c1cc(Cl)ccc1Cl` (stereo not drawn) [Example 82], the Efficacy in data set [1] is 79%; in data set [2], 95%; in data set [4], 90%. Moreover, the logP in data set [3] was determined as 3.67.
On to `Cc1cc(C(=O)N2CCCCC2c2ccccc2Br)c(C)o1` (stereo not drawn) [Example 86], for which the Efficacy in data set [2] was 90%; in data set [5], 78%; in data set [4] it was 90%. Further, the logP in data set [3] worked out at 3.96.
Take `CCc1nn(C)c(F)c1C(=O)N1CCCCC1c1ccccc1Br` (stereo not drawn) [Example 87]: the Efficacy in data set [2] was found to be 95%; in data set [5], 89%; in data set [4], 100%. The logP in data set [3] amounted to 3.25.
In the case of `Cn1nc(C(F)F)c(C(=O)N2CCCCC2c2ccccc2Br)c1F` (stereo not drawn) [Example 91], the Efficacy in data set [1] worked out at 95%; in data set [2] it was 100%; in data set [4], 100%. For the same molecule, the logP in data set [3] is given as 3.39.
In the case of `Cn1nc(C(F)F)c(C(=S)N2CCCCC2c2ccccc2Br)c1F` (stereo not drawn) [Example 92], the Efficacy was 100% in data set [1]; 95% and 100% in data set [2]; 100% in data set [4]. Further, the logP in data set [3] is 3.92.
Regarding `Cn1nc(C(F)F)c(C(=O)N2CCCCC2c2cccc(Br)c2)c1F` (stereo not drawn) [Example 97], the figures for the Efficacy in data set [1], in data set [2] and in data set [4] were 96%, 100% and 100%, respectively. Further, the logP in data set [3] worked out at 3.51.
Take `Cn1nc(C(F)F)c(C(=S)N2CCCCC2c2cccc(Br)c2)c1F` (stereo not drawn) [Example 98]: the Efficacy in data set [1], in data set [2] and in data set [4] was 100% throughout. This molecule also registered a lipophilicity (logP) in data set [3] of 4.16.
On to `Cn1nc(C(F)F)c(C(=O)N2CCCCC2c2cccc(Oc3ccccc3)c2)c1F` (stereo not drawn) [Example 115], for which the Efficacy in data set [1] turned out to be 95%; in data set [2] it was 100%; in data set [4], 100%. This molecule yielded a logP in data set [3] of 3.99.
On to `CCc1nn(C)c(F)c1C(=O)N1CCCCC1c1ccc2ccccc2c1` (stereo not drawn) [Example 117], for which the Efficacy in data set [2] was found to be 95%; in data set [5], 90%; in data set [4], 95%. For the same molecule, the logP in data set [3] is reported as 3.58.
For `Cc1nn(C)c(F)c1C(=O)N1CCCCC1c1ccc2ccccc2c1` (stereo not drawn) [Example 118], the Efficacy was found to be 95% in data set [2], 100% in data set [5] and 100% in data set [4]. The molecule further showed a logP in data set [3] of 3.21.
`Cn1nc(C(F)F)c(C(=O)N2CCCCC2c2ccc3ccccc3c2)c1F` (stereo not drawn) [Example 122]: the Efficacy in data set [1] is reported as 94%; in data set [2], 100%; in data set [4], 100%. Besides, the logP in data set [3] was determined as 3.69.
As for `Cn1nc(C(F)F)c(C(=S)N2CCCCC2c2ccc3ccccc3c2)c1F` (stereo not drawn) [Example 123], the Efficacy was 88% in data set [1], 90% in data set [2] and 100% in data set [4]. The logP in data set [3] is recorded as 4.36.
The like results for `CC(c1ccccc1)C1CCCCN1C(=O)c1c(C(F)F)nn(C)c1F` (stereo not drawn) [Example 138] were, in that order, 98%, 100%, 100% and 3.39.
For the molecule `CC(c1ccccc1)C1CCCCN1C(=S)c1c(C(F)F)nn(C)c1F` (stereo not drawn) [Example 139], the Efficacy in data set [1] is listed as 95%; in data set [2], 95%; in data set [4], 100%. In addition, the logP in data set [3] was determined as 4.14.
Regarding `Cn1nc(C(F)F)c(C(=O)N2CCCCC2Cc2ccc(F)cc2)c1F` (stereo not drawn) [Example 156], the values for the Efficacy in data set [1], in data set [2] and in data set [4] were 75%, 100% and 100%, respectively. In data set [3], this molecule yielded a logP of 3.11.
On to `CC(c1ccccc1Cl)C1CCCCN1C(=O)c1c(C(F)F)nn(C)c1F` (stereo not drawn) [Example 163], for which the Efficacy in data set [1] is given as 98%; in data set [2], 100%; in data set [4] it was 100%. The molecule also registered a logP in data set [3] of 3.72.
`CC(c1ccccc1Cl)C1CCCCN1C(=S)c1c(C(F)F)nn(C)c1F` (stereo not drawn) [Example 166]: the Efficacy in data set [1], in data set [2] and in data set [4] was 100% each time. The molecule further yielded a logP in data set [3] of 4.53.
As for `CCc1nn(C)c(F)c1C(=O)N1CCCCC1CCc1ccccc1` (stereo not drawn) [Example 176], the Efficacy in data set [2] worked out at 90%; in data set [5], 70%; in data set [4] it was 95%. Also, the logP in data set [3] stood at 3.25.
With `Cn1nc(C(F)F)c(C(=O)N2CCCCC2CCOc2ccc(C(F)(F)F)cn2)c1F` (stereo not drawn) [Example 196], the Efficacy is 70% in data set [1], 100% in data set [2] and 100% in data set [4]. The same molecule yielded a logP in data set [3] of 3.57.
